Entries after “also recorded” stand apart in the source; their conditions may differ.
Tests used:
[1] = test system: washed platelets (WP); experiment: Collagen-induced platelet aggregation in washed platelets (light aggregometry); assay type: cell-based, human; parameters: IC50: unit of the concentration uncertain; conditions: for IC50: inhibition of platelet aggregation in response to collagen (5 (unit uncertain)), washed platelets; for effect of eserine on inhibition of collagen-induced aggregation in WP: physostigmine (eserine) 10 μM
Protocol: (§1) PRP and WP (2.5×10^8 platelets ml^−1) were prepared from blood. Briefly 36 ml whole blood was collected into 4 ml of 3.15% sodium citrate; this was centrifuged at 250 ¥g for 20 min (with gentle acceleration and deceleration). At this point PRP, which had separated from white blood cells and red blood cells, was gently removed. When WP were required this PRP was centrifuged at 700 g for 10 min (with gentle acceleration and deceleration) in the presence of prostacyclin. The platelet-poor plasma (PPP) was removed and the platelet pellet was washed three times with Tyrode's buffer, before being re-suspended in Tyrode's buffer to a concentration of 2.5 ¥108 platelets/ml.
(§2) Platelet aggregation was measured by light aggregometry. […] Aggregation was initiated by the addition of agonists, and monitored by Aggro-Link software for at least 6 min.
(§3) To study the aggregatory potency of ADP, the concentration-response (0.3-10 μM) curves were generated. Collagen at different concentrations (2-5 μg/ml) was also used to induce platelet aggregation. Submaximal concentrations of agonists, i.e. the concentrations that gave approximately 95% of the maximal aggregation were used to study the effects of inhibitors of aggregation. Aspirin and aspirin prodrugs was incubated for various intervals prior to the addition of aggregating agents.
To study the involvement of plasma BuChE in the activation of ST0701, purified BuChE (3 U/ml) was incubated with WP for 5 min in the aggregometer with stirring at 900 r.p.m. before the addition of the test compounds ST0701 which was incubated with the WP for a further 10 min, prior to the addition of collagen (5 ug/ml).
(§4) Eserine (in DMSO, 10 μM, giving a final concentration≦0.25% DMSO, which pilot studies had determined not to affect platelet aggregation) was preincubated with PRP or WP for 5 min in the aggregometer with stirring at 900 r.p.m. before the addition of test compounds (ST0701-05), which were incubated in PRP or WP for a further 10 min prior to the addition of an agonist (10 μM ADP or 5 μg/ml Collagen) to induce platelet aggregation.
Phenylmethylsulphonylfluoride (PMSF) 20, 50 and 100 μM dissolved in EtOH (<0.2% EtOH, which pilot studies had determined not to affect platelet aggregation) was preincubated in WP in the aggregometer for 5 min with stirring at 900 r.p.m. before the addition of test compound ST0702 to the WP, which was further incubated for 10 min prior to the addition of collagen (2 μg/ml) to induce platelet aggregation.

[2] = test system: platelet rich plasma (PRP); experiment: ADP-induced platelet aggregation in PRP; assay type: cell-based, human; conditions: ADP 10 μM, PRP; for effect of ODQ pretreatment on inhibition of ADP induced aggregation: ODQ 10 μM, compounds 100 μM
Protocol: as §1, §2, §3, §4
1H-[1,2,4]Oxadiazolo[4,3-a]quinoxalin-1-one (ODQ, dissolved in 100% DMSO, used at a final concentration of 10 μM, which gave a final concentration not more than 0.25% DMSO) was preincubated with PRP or WP for 5 min in the aggregometer with stirring at 900 r.p.m. before the addition of test compounds (ST0701-05), which were incubated in PRP or WP for a further 10 min prior to the addition of an agonist (10 μM ADP or 5 μg/ml collagen) to induce platelet aggregation.
Eserine (10 μM) was incubated with PRP for 5 min in the aggregometer with stirring at 900 r.p.m. before the addition of test compound ST0702 salicylate (500 μM), which was incubated in PRP for a further 10 min prior to the addition of the agonist ADP (10 μM) to induce platelet aggregation.

[3] = test system: 59M cells; experiment: Tumour cell-induced platelet aggregation (TCIPA), static conditions, 59M; assay type: cell-based, human; conditions: for inhibition of TCIPA induced by 59M: static, WP, 300 and 500 μM, 59M 1×10^3/ml
Excerpt: ISAS meanwhile is hydrolysed to aspirin and salicylic acid. […] The structure of platelet-tumor cell aggregates was studied using phase-contrast microscopy (Alonso-Escolano et al., 2004; Jurasz et al., 2001). […] Aliquots of each sample were then taken for phase-contrast microscopy examination using an Olympus CKX41 microscope (Olympus America Inc., […].). Photomicrographs were captured using a digital camera and MicroFire (Olympus America Inc.) software (Alonso-Escolano et al., 2004; Jurasz et al., 2001).

[4] = test system: P-selectin; experiment: Flow cytometry of platelet P-selectin during TCIPA induced by 59M cells; assay type: cell-based, human; conditions: 300 μM
[5] = cited from earlier work; for % Aspirin release: in human plasma, From Reference 7

Row | SMILES | IC50 ([1]; Homo sapiens, Platelet) | IC50 [1] | effect of eserine on inhibition of collagen-induced aggregation in WP [1] | inhibition of ADP (10 μM) induced aggregation in PRP, comparison in words [2] | effect of ODQ pretreatment on inhibition of ADP induced aggregation [2] | inhibition of TCIPA induced by 59M [3] | inhibition of TCIPA induced by 59M ([3]; listed as aspirin) | 59M-mediated increase in platelet surface P-selectin [4] | % Aspirin release [5] | effect of ST0702 on collagen-induced aggregation in WP after PMSF pretreatment ([1]; PMSF 50 μM, 20 μM, not significant) | effect of ST0702 on collagen-induced aggregation in WP after PMSF pretreatment ([1]; PMSF 100 μM, ST0702 200 μM (200-300 μM elsewhere in the source), collagen 2 μg/ml) | effect on TCIPA when tumour cells were preincubated with compound ([3]; 59M cells preincubated) | aspirin released in vitro ([5]; human plasma solution / in-vitro, of available (stoichiometric) aspirin, listed as ISANA)
1 | CC(=O)Oc1ccccc1C(=O)O [Aspirin] | 35 µM | 34 µM | did not affect the inhibitory actions | consistently less inhibition of aggregation than ST0701/02 | increased the inhibition | did not exert any significant effect | did not exert a significant effect | failed to prevent | 100% | – | – | – | –
2 | CC(=O)Oc1ccccc1C(=O)O[C@H]1CO[C@H]2[C@@H]1OC[C@H]2OC(=O)c1cccnc1 [ST0702, isosorbide-2-aspirinate-5-nicotinate] | 154 µM | – | not abolished | more efficacious than aspirin | increased the inhibition | consistently inhibited TCIPA | – | significantly (P<0.01, n=4) inhibited | 30-45% | slightly attenuated | significantly attenuated; also recorded: abolished | no effect on TCIPA | 40%

— US9670223B2, “Compounds with super-aspirin effects” (SOLVOTRIN THERAPEUTICS LTD., priority 2011, dated 2017)
